Each structure is given as a SMILES string. Counter-ions that a name gives are not always drawn.

A word on the Ki: it is a dissociation constant, usually derived from enzyme kinetics or from competition with a known ligand. A low value points to tighter binding.

T1 sequence (P37288 whole entry): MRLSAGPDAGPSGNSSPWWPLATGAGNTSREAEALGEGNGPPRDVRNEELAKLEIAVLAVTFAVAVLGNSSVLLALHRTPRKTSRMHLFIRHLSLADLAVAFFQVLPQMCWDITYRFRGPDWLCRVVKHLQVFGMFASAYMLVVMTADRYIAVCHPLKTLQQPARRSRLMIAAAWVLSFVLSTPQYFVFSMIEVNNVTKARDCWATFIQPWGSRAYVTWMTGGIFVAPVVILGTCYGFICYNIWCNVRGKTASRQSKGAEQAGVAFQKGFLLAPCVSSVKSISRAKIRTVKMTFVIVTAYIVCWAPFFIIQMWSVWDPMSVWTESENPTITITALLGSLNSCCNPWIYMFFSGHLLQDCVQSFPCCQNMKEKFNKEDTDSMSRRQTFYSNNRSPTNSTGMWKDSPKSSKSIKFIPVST

This test addresses T1, human V1a receptor (Homo sapiens, UniProt P37288).
T1 construct: expressed in transfected cells; host or cells: HEK293 cells, transiently transfected; cell membranes
The test can be described thus: human V1a receptor binding (3H-Vasopressin SPA, HEK293 membranes). The note with it: displacement of 4 nM 3H-Vasopressin, membranes of HEK293 cells transiently transfected with human V1a receptor; Ki from IC50 by Cheng-Prussoff. In a few lines:
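Transiently transfected HEK293 membranes on yttrium silicate SPA beads in Tris binding buffer (120 mM NaCl, 5 mM KCl, 2 mM CaCl2, 10 mM MgCl2). 3H-vasopressin added as 4 nM working solution; excess cold vasopressin set non-specific binding. 1 h at room temperature, then counting; Ki from fitted IC50 via Cheng-Prusoff.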
As to `Cc1c(C(=O)N2CCC3(CC2)OCc2ccccc23)c2ccccc2n1S(=O)(=O)c1ccccc1` [Example 45, 1′-{[2-methyl-1-(phenylsulfonyl)-1H-indol-3-yl]carbonyl}-3H-spiro[2-benzofuran-1,4′-piperidine]], the affinity corresponds to a Ki of 9.5 nM.

In turn, `Cc1c(C(=O)N2CCC3(CC2)OCc2ccccc23)c2ccccc2n1Cc1cc(F)cc(F)c1` [Example 52] yielded a Ki of 2.1 nM.

`Cc1c(C(=O)N2CCC3(CC2)CNc2ccccc23)c2ccccc2n1Cc1ccccc1` [Example 9, 1′-[(1-benzyl-2-methyl-1H-indol-3-yl)carbonyl]-1,2-dihydrospiro[indole-3,4′-piperidine]]: affinity was put at a Ki of 9.7 nM.

Compound `CN1CCC[C@@H]1Cn1cc(C(=O)N2CCC3(CC2)OCc2ccccc23)c2ccc(Cl)cc21` [Example 269] had a Ki of 1 nM.

In the case of `O=C1OC2(CCN(C(=O)c3cn(Cc4cnccn4)c4cc(Cl)ccc34)CC2)c2ccc(F)cc21` [Example 173, 1′-{[6-Chloro-1-(pyrazin-2-ylmethyl)-1H-indol-3-yl]carbonyl}-5-fluoro-3H-spiro[2-benzofuran-1,4′-piperidin]-3-one], the Ki is 2.3 nM.

`CN1CCC(Cn2cc(C(=O)N3CCC4(CC3)OCc3ccccc34)c3ccc(Cl)cc32)C1` (stereo not shown) [Example 264, 1′-({6-Chloro-1-[(1-methylpyrrolidin-3-yl)methyl]-1H-indol-3-yl}carbonyl)-3H-spiro[2-benzofuran-1,4′-piperidine]]: the Ki amounted to 1.8 nM.

In the case of `CN(C)C(=O)Cn1cc(C(=O)N2CCC3(CC2)OCc2ccccc23)c2ccc(Cl)cc21` [Example 206, 2-[6-Chloro-3-(1′H,3H-spiro[2-benzofuran-1,4′-piperidin]-1′-ylcarbonyl)-1H-indol-1-yl]-N,N-dimethylacetamide], the affinity corresponds to a Ki of 0.5 nM.

For `Cc1nc(Cn2cc(C(=O)N3CCC4(CC3)OC(=O)c3cc(F)ccc34)c3ccc(Cl)cc32)c(C2CC2)o1` [Example 182, 1′-({6-Chloro-1-[(5-cyclopropyl-2-methyl-1,3-oxazol-4-yl)methyl]-1H-indol-3-yl}carbonyl)-5-fluoro-3H-spiro[2-benzofuran-1,4′-piperidin]-3-one], the Ki stood at 4 nM.

`Cc1c(C(=O)N2CCC3(CC2)OC(=O)c2ccc(Cl)cc23)c2ccccc2n1Cc1ccccc1` [Example 10, 1′-[(1-benzyl-2-methyl-1H-indol-3-yl)carbonyl]-6-chloro-3H-spiro[2-benzofuran-1,4′-piperidin]-3-one] gave a Ki of 12.7 nM.

In turn, `N#CCCn1cc(C(=O)N2CCC3(CC2)OC(=O)c2cc(F)ccc23)c2ccc(Cl)cc21` [Example 175, 3-{6-Chloro-3-[(5-fluoro-3-oxo-1′H,3H-spiro[2-benzofuran-1,4′-piperidin]-1′-yl)carbonyl]-1H-indol-1-yl}propanenitrile] gave a Ki of 2.5 nM.

The compound `CNCCn1cc(C(=O)N2CCC3(CC2)OCc2ccccc23)c2ccc(Cl)cc21` [Example 254, 2-[6-Chloro-3-(1′H,3H-spiro[2-benzofuran-1,4′-piperidin]-1′-ylcarbonyl)-1H-indol-1-yl]-N-methylethanamine] gave a Ki of 1.9 nM.

On to `NCCn1cc(C(=O)N2CCC3(CC2)OCc2ccccc23)c2ccc(Cl)cc21` [Example 253, 2-[6-Chloro-3-(1′H,3H-spiro[2-benzofuran-1,4′-piperidin]-1′-ylcarbonyl)-1H-indol-1-yl]ethanamine], for which affinity was put at a Ki of 7.7 nM.

Regarding `CCN(CC)C(=O)Cn1cc(C(=O)N2CCC3(CC2)OC(=O)c2ccccc23)c2ccc(Cl)cc21` [Example 107, 2-{6-Chloro-3-[(3-oxo-1′H,3H-spiro[2-benzofuran-1,4′-piperidin]-1′-yl)carbonyl]-1H-indol-1-yl}-N,N-diethylacetamide], the Ki is 1.3 nM.

`O=C1OC2(CCN(C(=O)c3cn(CC4(F)COC4)c4cc(Cl)ccc34)CC2)c2ccccc21` [Example 189, 1′-({6-Chloro-1-[(3-fluorooxetan-3-yl)methyl]-1H-indol-3-yl}carbonyl)-3H-spiro[2-benzofuran-1,4′-piperidin]-3-one] returned a Ki of 1.7 nM.

In turn, `Cc1c(C(=O)N2CCC3(CC2)OCc2ccccc23)c2ccccc2n1Cc1ccccc1` [Example 39, 1′-[(1-benzyl-2-methyl-1H-indol-3-yl)carbonyl]-3H-spiro[2-benzofuran-1,4′-piperidine]] gave a Ki of 1.8 nM.

Turning to `Cn1cncc1Cn1cc(C(=O)N2CCC3(CC2)OC(=O)c2cc(F)ccc23)c2ccc(Cl)cc21` [Example 183, 1′-({6-Chloro-1-[(1-methyl-1H-imidazol-5-yl)methyl]-1H-indol-3-yl}carbonyl)-5-fluoro-3H-spiro[2-benzofuran-1,4′-piperidin]-3-one], the Ki came to 5.2 nM.

The compound `O=C1OC2(CCN(C(=O)c3cn(CC4CNCCO4)c4cc(Cl)ccc34)CC2)c2ccccc21` (stereo not shown) [Example 198, 1′-{[6-Chloro-1-(morpholin-2-ylmethyl)-1H-indol-3-yl]carbonyl}-3H-spiro[2-benzofuran-1,4′-piperidin]-3-one hydrochloride] returned a Ki of 3.3 nM.

As for `O=C1OC2(CCN(C(=O)c3cn(Cc4cc(F)cc(F)c4)c4ccccc34)CC2)c2ccccc21` [Example 202, 1′-{[1-(3,5-Difluorobenzyl)-1H-indol-3-yl]carbonyl}-3H-spiro[2-benzofuran-1,4′-piperidin]-3-one], the Ki worked out at 4.3 nM.

Take `O=C(c1c[nH]c2cc(Cl)ccc12)N1CCC2(CC1)C(=O)Nc1ccc(Br)cc12` [Example 280, 5-Bromo-1′-[(6-chloro-1H-indol-3-yl)carbonyl]spiro[indole-3,4′-piperidin]-2(1H)-one]: the Ki was found to be 67.6 nM.

Consider `CN(C)CCNC(=O)Cn1cc(C(=O)N2CCC3(CC2)OC(=O)c2ccccc23)c2ccc(Cl)cc21` [Example 119, 2-{6-Chloro-3-[(3-oxo-1′H,3H-spiro[2-benzofuran-1,4′-piperidin]-1′-yl)carbonyl]-1H-indol-1-yl}-N-[2-(dimethylamino)ethyl]acetamide], for which the inhibitory constant (Ki) was determined as 24 nM.

Compound `O=C(c1c[nH]c2cc(Cl)ccc12)N1CCC2(C=Cc3ccccc32)CC1` [Example 5, 1′-[(6-chloro-1H-indol-3-yl)carbonyl]spiro[indene-1,4′-piperidine]] came in with a Ki of 8.2 nM.

Compound `O=C(c1cn(Cc2cccnc2)c2cc(Cl)ccc12)N1CCC2(CC1)CNc1ccccc12` [Example 102, 1′-{[6-Chloro-1-(pyridin-3-ylmethyl)-1H-indol-3-yl]carbonyl}-1,2-dihydrospiro[indole-3,4′-piperidine]] registered a Ki of 25.1 nM.

`O=C1OC2(CCN(C(=O)c3cn(-c4ccccn4)c4cc(Cl)ccc34)CC2)c2ccccc21` [Example 159, 1-[(6-Chloro-1-pyridin-2-yl-1H-indol-3-yl)carbonyl]-3H-spiro[2-benzofuran-1,4′-piperidin]-3-one]: the Ki is 7.6 nM.

Turning to `CN(C)CCn1cc(C(=O)N2CCC3(CC2)OCc2ccccc23)c2ccc(Cl)cc21` [Example 210, 2-[6-Chloro-3-(1′H,3H-spiro[2-benzofuran-1,4′-piperidin]-1′-ylcarbonyl)-1H-indol-1-yl]-N,N-dimethylethanamine], the Ki came out at 1 nM.

For `CC(C)(C)OC(=O)Cn1cc(C(=O)N2CCC3(CC2)OC(=O)c2cc(F)ccc23)c2ccc(Cl)cc21` [Example 112, tert-Butyl {6-chloro-3-[(5-fluoro-3-oxo-1′H,3H-spiro[2-benzofuran-1,4′-piperidin]-1′-yl)carbonyl]-1H-indol-1-yl}acetate], the affinity corresponds to a Ki of 2 nM.

Compound `CN(C)C(=O)Cn1cc(C(=O)N2CCC3(CC2)OC(=O)c2cc(F)ccc23)c2ccc(Cl)cc21` [Example 110, 2-{6-Chloro-3-[(5-fluoro-3-oxo-1′H,3H-spiro[2-benzofuran-1,4′-piperidin]-1′-yl)carbonyl]-1H-indol-1-yl}-N,N-dimethylacetamide] displayed a Ki of 0.8 nM.

Consider `O=C(c1c2n(c3ccccc13)CCNC2)N1CCC2(CC1)OCc1ccccc12` [Example 275, 1′-(1,2,3,4-Tetrahydropyrazino[1,2-a]indol-10-ylcarbonyl)-3H-spiro[2-benzofuran-1,4′-piperidine]hydrochloride], for which the Ki amounted to 15.7 nM.

Consider `O=C(c1cn(C(=O)c2cc(F)cc(F)c2)c2cc(Cl)ccc12)N1CCC2(CC1)OCc1ccccc12` [Example 216], for which the affinity corresponds to a Ki of 3.5 nM.

The compound `O=C(c1cn(C(=O)c2cccc(F)c2)c2cc(Cl)ccc12)N1CCC2(CC1)OCc1ccccc12` [Example 214] had a Ki of 5.1 nM.

With `Cc1cc2c(C(=O)N3CCC4(CC3)OC(=O)c3ccccc34)cn(CC(=O)N(C)C)c2cc1Cl` [Example 120, 2-{6-Chloro-5-methyl-3-[(3-oxo-1′H,3H-spiro[2-benzofuran-1,4′-piperidin]-1′-yl)carbonyl]-1H-indol-1-yl}-N,N-dimethylacetamide], the Ki came out at 2.7 nM.

Compound `Cc1noc(C)c1Cn1cc(C(=O)N2CCC3(CC2)OCc2ccccc23)c2ccc(Cl)cc21` [Example 241] showed a Ki of 1.5 nM.

`N#CCC1(Cn2cc(C(=O)N3CCC4(CC3)OCc3ccccc34)c3ccc(Cl)cc32)CC1` [Example 245, (1-{[6-Chloro-3-(1′H,3H-spiro[2-benzofuran-1,4′-piperidin]-1′-ylcarbonyl) -1H-indol-1-yl]methyl}cyclopropyl)acetonitrile] had a Ki of 1.7 nM.

Take `CN(C)CCNC(=O)Cn1cc(C(=O)N2CCC3(CC2)OCc2ccccc23)c2ccc(Cl)cc21` [Example 249, 2-[6-Chloro-3-(1′H,3H-spiro[2-benzofuran-1,4′-piperidin]-1′-ylcarbonyl)-1H-indol-1-yl]-N-[2-(dimethylamino)ethyl]acetamide]: the affinity, expressed as Ki, was 2.4 nM.

For `O=C(c1cn(Cc2ccccc2)c2ccccc12)N1CCC2(C=Cc3ccccc32)CC1` [Example 3, 1′-[(1-benzyl-1H-indol-3-yl)carbonyl]spiro[indene-1,4′-piperidine]], the affinity, expressed as Ki, was 10.1 nM.

For the origin of these results see patent US7332501B2, “Indol-3-yl-carbonyl-spiro-piperidine derivatives as V1a receptor antagonists” (Hoffmann-La Roche Inc., priority 2005, dated 2008).
